Assays:
[1] = Affinity to hairpin A-site 16S rRNA by Electrospray ionization mass spectrometry
[2] = Affinity to 2-aminopurine labeled hairpin A-site 16S rRNA by Electrospray ionization mass spectrometry

NC[C@@H]1O[C@H](O[C@H]2[C@@H](O)[C@H](O[C@@H]3[C@@H](O)[C@H](N)C[C@H](N)[C@H]3O[C@H]3O[C@H](CO)[C@@H](O)[C@H](O)[C@H]3N)O[C@@H]2CO)[C@H](N)[C@@H](O)[C@@H]1O [PAROMOMYCIN]
Kd [1]: 370 nM | Kd [2]: 980 nM

Source: ChEMBL document CHEMBL1143043, “Monitoring aminoglycoside-induced conformational changes in 16S rRNA through acrylamide quenching” (Bioorg Med Chem, 2007)
